For 8 compounds, inhibition results are on record in patent US20230374034A1, “NOVEL BICYCLIC COMPOUNDS” (PRISM BIOLAB CO., LTD., priority 2020, published 2023).

Structures are written as SMILES.

One experiment relates to NICD (Notch intracellular domain) CSL-bla reporter in HeLa cells. Put plainly: Notch assay (CellSensor T-REx NICD CSL-bla HeLa beta-lactamase reporter; Method 1 / Method 2). Type of experiment: cell-based. The settings on record: Homo sapiens, 10 μM compound, Method 1 (10× compound prepared in assay medium, added to plated cells), read-out: inhibiton (%) at 10 μM. In a few lines: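 HeLa cells carrying doxycycline-inducible NICD and a CSL-driven beta-lactamase reporter, 10^3 cells/well, were treated with compound plus doxycycline for 16-20 h at 37 °C. CCF4-AM substrate was loaded for 4 h at room temperature; background-subtracted blue (460 nm)/green (530 nm) emission ratio taken per well.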
For `CCCC[C@@H]1ON(C(=O)OCc2cccc3ccccc23)C2CN(C(C)C)C(=O)[C@H](Cc3ccc(O)cc3)N2C1=O` (stereo partly drawn) [Compound I-23, (3S,6S)-naphthalen-1-ylmethyl 3-butyl-6-(4-hydroxybenzyl)-8-isopropyl-4,7-dioxohexahydropyrazino[2,1-c][1,2,4]oxadiazine-1(6H)-carboxylate], the inhibition at 10 µM stood at 50.4%.

Still in this experiment, the particulars now being: Homo sapiens, 10 μM compound, Method 2 (40 nL of 1000× compound added to plate with Echo), read-out: inhibiton (%) at 10 μM.
Turning to `CN1CCC(N2CC3N(C(=O)OCc4ccccc4)O[C@H](CC4CCCCC4)C(=O)N3[C@@H](CC3CCCCC3)C2=O)CC1` (stereo partly drawn) [Compound I-139, benzyl (3R,6S)-3,6-bis (cyclohexylmethyl)-8-(1-methylpiperidin-4-yl)-4,7-dioxohexahydropyrazino [2,1-c][1,2,4]oxadiazine-1(6H)-carboxylate], the inhibition at 10 µM worked out at 116%.

Regarding `CC(C)C[C@H]1ON(C(=O)NCCC(c2ccccc2)c2ccccc2)C2CN(CCC(c3ccccc3)c3ccccc3)C(=O)[C@H](CCC(N)=O)N2C1=O` (stereo partly drawn) [Compound I-56, (3R,6S)-6-(3-amino-3-oxopropyl)-N,8-bis(3,3-diphenylpropyl)-3-isobutyl-4,7-dioxohexahydropyrazino[2,1-c][1,2,4]oxadiazine-1(6H)-carboxamide], the inhibition at 10 µM stood at 53%.

In the case of `CC(C)C[C@H]1C(=O)N(CCc2ccc(O)cc2)CC2N(C(=O)OCCc3ccc(O)cc3)O[C@H](Cc3ccc(O)cc3)C(=O)N21` (stereo partly drawn) [Compound I-41, (3R,6S)-4-hydroxyphenethyl 3-(4-hydroxybenzyl)-8-(4-hydroxyphenethyl)-6-isobutyl-4,7-dioxohexahydropyrazino[2,1-c][1,2,4]oxadiazine-1(6H)-carboxylate], the inhibition at 10 µM is 59.3%.

Regarding `COC(=O)N1O[C@H](CC2CCCCC2)C(=O)N2C1CN(CC1CCCCC1)C(=O)[C@@H]2CCCCN` (stereo partly drawn) [Compound I-36, (3R,6S)-methyl 6-(4-aminobutyl)-3,8-bis(cyclohexylmethyl)-4,7-dioxohexahydropyrazino[2,1-c][1,2,4]oxadiazine-1(6H)-carboxylate], the inhibition at 10 µM was 52.2%.

As for `C[C@H]1ON(C(=O)OCCc2ccc(O)cc2)C2CN([C@@H](Cc3ccccc3)C(=O)NCCC(N)=O)C(=O)[C@H](Cc3ccccc3)N2C1=O` (stereo partly drawn) [Compound I-86, 4-hydroxyphenethyl (3R,6S)-8-((S)-1-((3-amino-3-oxopropyl)amino)-1-oxo-3-phenylpropan-2-yl)-6-benzyl-3-methyl-4,7-dioxohexahydro-pyrazino[2,1-c] [1,2,4]oxadiazine-1(6H)-carboxylate], the inhibition at 10 µM stood at 70.9%.

For the compound `CCCCCOC(=O)N1O[C@H](CC(C)C)C(=O)N2C1CN([C@@H](Cc1ccc(O)cc1)C(=O)NCCC(C)C)C(=O)[C@@H]2Cc1ccc(O)cc1` (stereo partly drawn) [Compound I-96, pentyl (3R,6S)-6-(4-hydroxybenzyl)-8-((S)-3-(4-hydroxyphenyl)-1-(isopentylamino)-1-oxopropan-2-yl)-3-isobutyl-4,7-dioxohexahydropyrazino[2,1-c][1,2,4]oxadiazine-1(6H)-carboxylate], the inhibition at 10 µM was 56.3%.

Regarding `CC(C)CCOC(=O)N1O[C@H](Cc2ccc(O)cc2)C(=O)N2C1CN([C@@H](Cc1ccc(O)cc1)C(=O)NCCc1ccccc1)C(=O)[C@@H]2Cc1ccc(O)cc1` (stereo partly drawn) [Compound I-117, isopentyl (3R,6S)-3,6-bis(4-hydroxybenzyl)-8-((S)-3-(4-hydroxyphenyl)-1-oxo-1-(phenethylamino)propan-2-yl)-4,7-dioxohexahydropyrazino[2,1-c][1,2,4]oxadiazine-1(6H)-carboxylate], the inhibition at 10 µM was 59.7%.
